Patent US8815857B2 (Boehringer Ingelheim International GmbH, priority 2011, dated 2014)
Converted amounts (≈) assume the structure as drawn.

Legend:
[1] = Assessment of solubility: HT solubility in pION buffer, UV spectrophotometry; conditions: kinetic from dmso stock
[2] = biological target: T1, human soluble guanylate cyclase alpha 1 and beta 1 subunits (sGC) stably expressed in Chinese hamster ovary cells (Homo sapiens, UniProt Q02108+Q02153); test: sGC cellular activator assay: cGMP in CHO cells expressing human sGC, preincubated with ODQ; type: cell-based; conditions: 40 microM ODQ preincubation, 30 min at room temperature, presence or absence of 50% human serum not given, read-out: EC50 nM, Activity of Compounds in Cellular Assay
T1 construct: expressed in transfected cells; host or cells: Chinese hamster ovary cells, stably transfected
T1 sequence (Q02108 1-690 partner): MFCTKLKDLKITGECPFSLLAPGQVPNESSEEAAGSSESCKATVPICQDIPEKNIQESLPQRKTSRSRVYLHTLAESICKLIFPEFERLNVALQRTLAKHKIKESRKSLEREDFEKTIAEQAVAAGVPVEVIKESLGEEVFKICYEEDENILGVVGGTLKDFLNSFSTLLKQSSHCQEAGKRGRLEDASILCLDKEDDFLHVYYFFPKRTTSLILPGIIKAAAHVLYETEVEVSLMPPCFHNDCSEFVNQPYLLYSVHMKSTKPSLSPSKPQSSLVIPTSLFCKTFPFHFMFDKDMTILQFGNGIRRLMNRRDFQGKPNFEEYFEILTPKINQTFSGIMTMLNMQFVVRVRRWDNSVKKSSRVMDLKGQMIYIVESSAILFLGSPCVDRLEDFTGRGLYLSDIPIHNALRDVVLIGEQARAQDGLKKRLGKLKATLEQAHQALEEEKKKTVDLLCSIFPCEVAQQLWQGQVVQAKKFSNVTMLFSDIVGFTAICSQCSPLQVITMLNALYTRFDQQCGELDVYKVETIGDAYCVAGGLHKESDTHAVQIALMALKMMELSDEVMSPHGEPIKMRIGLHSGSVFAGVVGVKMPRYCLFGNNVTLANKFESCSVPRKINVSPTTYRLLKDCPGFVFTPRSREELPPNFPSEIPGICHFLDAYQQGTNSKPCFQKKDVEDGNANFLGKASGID
T1 sequence (Q02153 1-619): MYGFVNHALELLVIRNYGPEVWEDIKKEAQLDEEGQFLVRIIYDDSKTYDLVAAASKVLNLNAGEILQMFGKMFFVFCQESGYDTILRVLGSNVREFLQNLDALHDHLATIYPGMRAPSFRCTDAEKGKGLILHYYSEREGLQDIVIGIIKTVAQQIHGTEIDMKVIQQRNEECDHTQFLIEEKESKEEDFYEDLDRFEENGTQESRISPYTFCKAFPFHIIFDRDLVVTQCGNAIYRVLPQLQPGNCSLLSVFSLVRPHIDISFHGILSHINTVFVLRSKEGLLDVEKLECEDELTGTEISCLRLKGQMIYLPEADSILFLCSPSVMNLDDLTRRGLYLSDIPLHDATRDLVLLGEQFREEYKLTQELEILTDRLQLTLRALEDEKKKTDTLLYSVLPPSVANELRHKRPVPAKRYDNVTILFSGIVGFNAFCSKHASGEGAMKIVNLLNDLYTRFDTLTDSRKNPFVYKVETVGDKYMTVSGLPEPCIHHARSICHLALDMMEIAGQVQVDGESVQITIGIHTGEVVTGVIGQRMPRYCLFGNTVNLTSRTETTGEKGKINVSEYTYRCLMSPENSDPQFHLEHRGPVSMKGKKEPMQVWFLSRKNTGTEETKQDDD
How it was run: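 EC50 values derive from HTRF cGMP measurement after test compounds act for thirty minutes at room temperature, with or without 50% human serum. Before dosing, the sGC-transfected CHO cells spend one hour with the inhibitor ODQ (40 microM) in IBMX- and 0.1% BSA-containing buffer.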

[3] = pH 6.8, aqueous buffer, Solubility (pH 6.8), pH 6.8
[4] = pION system solution buffer, pH 4.5, pH 4.5, aqueous buffer, Solubility (pH 4.5), pH 4.5 buffer, 16-19 h incubation, 1.0% DMSO
[5] = pION system solution buffer, pH 7.4, pH 7.4, aqueous buffer, Solubility (pH 7.4), pH 7.4 buffer, 16-19 h incubation, 1.0% DMSO

SMILES	solubility [1, 3] [µg/mL]	solubility [1, 4] [µg/mL]	EC50 [2] [nM]	solubility [1, 5] [µg/mL]
CCN(CCO)C(=O)c1ccc(COc2ccc(C)cc2-c2csc(N3C[C@H]4CC[C@@H](C3)[C@H]4C(=O)O)n2)c(C)c1 [Compound 298]	66 (≈ 117 µM)	0.32 (≈ 0.568 µM)	59	–
CCN(C)C(=O)c1ccc(COc2ccc(C)cc2-c2csc(N3C[C@H]4CC[C@@H](C3)[C@H]4C(=O)O)n2)c(C)c1 [Compound 303]	36 (≈ 67.5 µM)	0.13 (≈ 0.244 µM)	11	–
Cc1ccc(OCc2ccc(CN3CCN(C(=O)C4CC4)CC3)cc2C)c(-c2csc(N3C[C@H]4CC[C@@H](C3)[C@H]4C(=O)O)n2)c1 [Compound 228]	0.42 (≈ 0.683 µM)	6.1 (≈ 9.92 µM)	39	–
Cc1ccc(OCc2ccc(CN3CCOCC3)cc2C)c(-c2csc(N3CC(C4(C(=O)O)CC4)C3)n2)c1 [Compound 261]	6.4 (≈ 12 µM)	17 (≈ 31.9 µM)	710	–
Cc1ccc(OCc2ccc(C(=O)N3CCOCC3)cc2C)c(-c2csc(N3C[C@@H]4[C@H](C3)[C@@H]4C(=O)O)n2)c1 [Compound 247]	70 (≈ 131 µM)	46 (≈ 86.2 µM)	720	–
Cc1ccc(OCc2ccc(C(=O)N3CCCCC3)cc2C)c(-c2csc(N3CC4(CC4C(=O)O)C3)n2)c1 (stereo not shown) [Compound 248]	47 (≈ 88.4 µM)	< 0.1	110	–
Cc1ccc(OCc2ccc(CN3CCOCC3)cc2C)c(-c2csc(N3CC4(CC4C(=O)O)C3)n2)c1 (stereo not shown) [Compound 257]	45 (≈ 86.6 µM)	56 (≈ 108 µM)	540	–
CCOCCN(C)C(=O)c1ccc(COc2ccc(C)cc2-c2csc(N3C[C@H]4CC[C@@H](C3)[C@H]4C(=O)O)n2)c(C)c1 [Compound 335]	49 (≈ 84.8 µM)	0.4 (≈ 0.692 µM)	70	–
Cc1ccc(OCc2ccc(CN3CCOCC3)cc2C)c(-c2csc(N3CCCC(C)(C(=O)O)CC3)n2)c1 (stereo not shown) [Compound 233]	0.6 (≈ 1.09 µM)	47 (≈ 85.5 µM)	310	–
Cc1ccc(OCc2ccc(CN3CCN(C(=O)C4CC4)CC3)cc2C)c(-c2csc(N3CC(C4(C(=O)O)CC4)C3)n2)c1 [Compound 255]	0.94 (≈ 1.56 µM)	6 (≈ 9.99 µM)	480	–
Cc1ccc(OCc2ccc(CN(C)[C@@H]3CCS(=O)(=O)C3)cc2C)c(-c2csc(N3C[C@H]4CC[C@@H](C3)[C@H]4C(=O)O)n2)c1 [Compound 351]	1.3 (≈ 2.13 µM)	0.21 (≈ 0.344 µM)	10	–
Cc1ccc(OCc2ccc(CN3CCS(=O)(=O)CC3)cc2C)c(-c2csc(N3CCCC(C)(C(=O)O)CC3)n2)c1 (stereo not shown) [Compound 230]	0.95 (≈ 1.59 µM)	< 0.1	120	–
Cc1ccc(OCc2ccc(CN3CCS(=O)(=O)CC3)cc2C)c(-c2csc(N3CC(CC(=O)O)C3)n2)c1 [Compound 253]	0.29 (≈ 0.522 µM)	0.5 (≈ 0.9 µM)	380	–
Cc1ccc(OCc2ccc(C(=O)N3CCOCC3)cc2C)c(-c2csc(N3CC[C@@]4(C(=O)O)C[C@H]4C3)n2)c1 [Compound 224]	54 (≈ 98.6 µM)	< 0.1	5.8	–
Cc1ccc(OCc2ccc(CN3CCN(C(C)C)C(=O)C3)cc2C)c(-c2csc(N3CC4CCC(C3)C4C(=O)O)n2)c1 (stereo not shown) [Compound 293]	3.4 (≈ 5.64 µM)	< 0.1	29	–
Cc1ccc(OCc2ccc(C(=O)N(C)CCCO)cc2C)c(-c2csc(N3C[C@H]4CC[C@@H](C3)[C@H]4C(=O)O)n2)c1 [Compound 324]	73 (≈ 129 µM)	0.92 (≈ 1.63 µM)	66	–
Cc1ccc(OCc2ccc(CN3CCS(=O)(=O)CC3)cc2C)c(-c2csc(N3CC(C4(C(=O)O)CC4)C3)n2)c1 [Compound 259]	19 (≈ 32.7 µM)	< 0.1	580	–
Cc1ccc(OCc2ccc(C(=O)N(C)CC3CCCO3)cc2C)c(-c2csc(N3C[C@H]4CC[C@@H](C3)[C@H]4C(=O)O)n2)c1 (stereo partly shown) [Compound 306]	50 (≈ 84.8 µM)	0.13 (≈ 0.22 µM)	21	5.2 (≈ 8.82 µM)
COc1cc(CN2CCOCC2)ccc1COc1ccc(C)cc1-c1csc(N2CCC(C(=O)O)CC2)n1 [Compound 278]	–	> 53	51	30 (≈ 55.8 µM)

More lines, now with the values ahead:

solubility [1, 3] [µg/mL]	solubility [1, 4] [µg/mL]	EC50 [2] [nM]	solubility [1, 5] [µg/mL]	SMILES
0.89 (≈ 1.55 µM)	< 0.1	39	–	Cc1ccc(OCc2c(C)cc(C(=O)N3CCCCC3)cc2C)c(-c2csc(N3C[C@H]4CC[C@@H](C3)[C@H]4C(=O)O)n2)c1 [Compound 282]
0.45 (≈ 0.779 µM)	< 0.1	75	–	Cc1ccc(OCc2ccc(C(=O)N3CCCCC3)cc2C)c(-c2csc(N3C[C@H]4CC[C@@H](C3)[C@@]4(F)C(=O)O)n2)c1 [Compound 221, 8-fluoro-3-(4-{5-methyl-2-[2-methyl-4-(piperidine-1-carbonyl)-benzyloxy]-phenyl}-thiazol-2-yl)-3-aza-bicyclo[3.2.1]octane-8(syn)-carboxylic acid]
34 (≈ 63.9 µM)	–	17	–	Cc1ccc(OCc2ccc(C(=O)N3CCC3)cc2C)c(-c2csc(N3C[C@H]4CC[C@@H](C3)[C@H]4C(=O)O)n2)c1 [Compound 361, 3-(4-{2-[4-(azetidine-1-carbonyl)-2-methyl-benzyloxy]-5-methyl-phenyl}-thiazol-2-yl)-3-aza-bicyclo[3.2.1]octane-8(syn)-carboxylic acid]
21 (≈ 36.6 µM)	< 0.1	6.2	–	CCc1cc(C(=O)N2CCCCC2)ccc1COc1ccc(C)cc1-c1csc(N2C[C@H]3CC[C@@H](C2)[C@H]3C(=O)O)n1 [Compound 287]
58 (≈ 102 µM)	0.3 (≈ 0.526 µM)	13	–	Cc1ccc(OCc2ccc(C(=O)N3CCCCC3)cc2C#N)c(-c2csc(N3C[C@H]4CC[C@@H](C3)[C@H]4C(=O)O)n2)c1 [Compound 263]
65 (≈ 113 µM)	0.24 (≈ 0.417 µM)	57	–	Cc1ccc(OCc2ccc(C(=O)N3CCC(O)CC3)cc2C)c(-c2csc(N3C[C@H]4CC[C@@H](C3)[C@H]4C(=O)O)n2)c1 [Compound 301]
41 (≈ 69.5 µM)	0.13 (≈ 0.22 µM)	55	–	COC1CCN(C(=O)c2ccc(COc3ccc(C)cc3-c3csc(N4C[C@H]5CC[C@@H](C4)[C@H]5C(=O)O)n3)c(C)c2)CC1 [Compound 321]
0.17 (≈ 0.295 µM)	< 0.1	390	–	Cc1ccc(OCc2ccc(C(=O)N3CCCCC3)cc2C)c(-c2csc(N3C[C@H]4CC[C@@H](C3)[C@@]4(O)C(=O)O)n2)c1 [Compound 216, 8-hydroxy-3-(4-{5-methyl-2-[2-methyl-4-(piperidine-1-carbonyl)-benzyloxy]-phenyl}-thiazol-2-yl)-3-aza-bicyclo[3.2.1]octane-8(syn)-carboxylic acid]
54 (≈ 93.8 µM)	< 0.1	120	–	Cc1ccc(OCc2c(C)cc(C(=O)N3CCOCC3)cc2C)c(-c2csc(N3C[C@H]4CC[C@@H](C3)[C@H]4C(=O)O)n2)c1 [Compound 285]
39 (≈ 66.7 µM)	< 0.1	51	–	Cc1ccc(OCc2ccc(C(=O)N3CCC(C#N)CC3)cc2C)c(-c2csc(N3C[C@H]4CC[C@@H](C3)[C@H]4C(=O)O)n2)c1 [Compound 323]
70 (≈ 125 µM)	< 0.1	7.3	38 (≈ 67.7 µM)	Cc1ccc(OCc2ccc(C(=O)N3CCOCC3)cc2C)c(-c2csc(N3C[C@H]4CC[C@@H](C3)[C@H]4C(=O)O)n2)c1 [Compound 268]
